Data on 56 compounds can be found in PubChem BioAssay AID850 (SRMLSC, 2007).

A short description of the assay: yeast lifespan-shortening chemical project counter-assay, dose-response inhibition of growth under permissive conditions (AID 850).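 Further: growth read as optical density after one day of incubation.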 The following applies: Saccharomyces cerevisiae growth inhibition, permissive control, measured here: maximum growth inhibition, stronger effect = higher value.

With `COc1ccc2[nH]c3c(Cl)ncnc3c2c1`, where the note is “at 50 µM”, the inhibition worked out at 35.5%.

`Cc1ccc(N=Nc2ccc(O)c3ncccc23)cc1` gave an inhibition (at 50 µM) of 30.3%.

For `COc1ccc(N/N=C(\C#N)C(N)=O)cc1`, the inhibition (at 25 µM) was 36.4%.

Under “at 25 µM”, `O=C1c2ccccc2C(=O)C1c1ccc2ccccc2n1` showed an inhibition of 30.6%. For the compound `OCCN(CCO)CC(O)COc1ccc(C23CC4CC(CC(C4)C2)C3)cc1` (stereo unspecified), the inhibition (at 25 µM) is 35.6%. Where the note is “at 12.5 µM”, `N/C(=N\OC(=O)c1ccc(Cl)cc1Cl)c1ccccc1` showed an inhibition of 32.3%.

Regarding `Cc1cc(C)c2c(N=NN(C)C)[nH]nc2n1`, the inhibition (at 25 µM) was determined as 35.6%.

On to `CCCCn1c(=O)c(C(=O)NCc2ccncc2)c(O)c2ccccc21`, for which, for the setting “at 50 µM”, the inhibition stood at 41.3%. The same measure, in the same setting: the same measure for `O=C(CCCSc1ccccc1)Nc1nc(-c2ccccn2)cs1`: 39%. In the case of `Oc1c(Cl)cc(Cl)cc1Sc1cc(Cl)cc(Cl)c1O`, where the note is “at 25 µM”, the inhibition amounted to 40.3%. `c1cc2c(cc1C1CCCCC1)c1c3n2CCCNC3CCC1` (stereo unspecified) yielded an inhibition (at 50 µM) of 38.7%. Same read-out and setting: next, `O=C(N/N=C1\CC2CC=CC12)c1ccc(COc2ccccc2)cc1` (stereo unspecified): 35.1%.

For the setting “at 25 µM”, `N#CCSc1nc2ccccc2c2nc3ccccc3n12` showed an inhibition of 39.2%. On to `C=CCSC(=C(C#N)C#N)c1cc2c([nH]1)CCCC2`, for which the inhibition (at 50 µM) came out at 32.9%. The compound `COc1ccc(-n2c(Cc3cccn3C)nnc2SCC(=O)N2CCCC2)cc1` showed an inhibition (at 12.5 µM) of 37.7%.

`Cc1cccc(OCCCOc2cccc3cccnc23)c1C`: for the setting “at 50 µM”, the inhibition turned out to be 33.1%. The same measure, in the same setting: next, `Clc1ccc2nnnc(-c3ccccc3)c2c1`: 37.5%. In turn, `O=c1c2c([N+](=O)[O-])cc([N+](=O)[O-])cc2sn1-c1ccc(Br)cc1` came in with an inhibition (at 25 µM) of 36.1%. In the case of `O=c1c2ccccc2nc2sc3ccccc3n12`, the inhibition (at 50 µM) turned out to be 38.4%. On to `CCc1cc2c(cc(C(=O)O)n2C)s1`, for which, where the note is “at 25 µM”, the inhibition was determined as 48.3%. For the compound `Cc1ccc2nc(-c3ccc(NS(=O)(=O)c4ccc(F)c(F)c4)cc3)sc2c1`, the inhibition (at 12.5 µM) was 39.1%. Regarding `O=C(O)c1cc2c(ccc3ccccc32)oc1=O`, for the setting “at 50 µM”, the inhibition is 38.3%. For the setting “at 50 µM”, `O=[N+]([O-])c1ccc(C2Oc3ccccc3C3CC(c4ccccc4)=NN32)s1` (stereo unspecified) registered an inhibition of 45%.

Where the note is “at 50 µM”, `Cc1ccc(O)c(C(=O)CC(=O)c2cccc(F)c2)c1` came in with an inhibition of 44.8%. Same read-out and setting: next, `CCCCc1ccc(NS(=O)(=O)c2cccs2)cc1`: 34.1%; `O=C(CN1CCN(c2ncc(C(F)(F)F)cc2Cl)CC1)NCCNc1ncc(C(F)(F)F)cc1Cl`: 38.3%. Turning to `Nc1cccc2nc3ccccc3cc12`, the inhibition (at 25 µM) came out at 38.6%. In turn, `CC1CCc2c(sc3nc(CN4CCOCC4)nc(Sc4ccccc4)c23)C1` (stereo unspecified) registered an inhibition (at 50 µM) of 33.9%. `CC(=O)c1c(C)oc2c1C(=O)c1ccccc1C2=O` had an inhibition (at 50 µM) of 39.7%. Under “at 50 µM”, `Cc1cc2sc(C(=O)O)c(C)c2s1` displayed an inhibition of 57.7%. Still for that read-out and setting: the same measure for `Cc1cc2c(cc(C(=O)O)n2C)s1`: 34.3%; for `COc1cccc(/C=N/N2C(=O)CSC2=S)c1O`: 34.1%. For `Cc1cccc(Cn2ncc(Cl)c(Cl)c2=O)c1`, the inhibition (at 50 µM) came out at 31.1%. The same measure, in the same setting: next, `Cc1ccc(C(=O)/C=C/c2cn(CN3CCN(C)CC3)c3ccccc23)cc1`: 34.5%. Under “at 25 µM”, `O=C(c1c[nH]c(C(=O)C(Cl)(Cl)Cl)c1)c1ccccc1Cl` displayed an inhibition of 46.3%. Under “at 50 µM”, `OCc1ccc(O)c2ncccc12` returned an inhibition of 33.1%. For the compound `Cc1cc(OCc2ccc(C(=O)NN=C3CCCC3)cc2)ccc1Cl`, the inhibition (at 50 µM) is 54.2%. Compound `O=S(=O)(Nc1ccc(-c2csc(-c3ccccc3)n2)cc1)c1ccc(F)cc1` registered an inhibition (at 3.125 µM) of 34.3%. In turn, `COc1cc(/C=C2/C(=O)ON=C2c2ccccc2)ccc1O` displayed an inhibition (at 50 µM) of 45.6%.

With `O=C(Cc1cccs1)NNC(=S)NC(=O)c1ccccc1`, for the setting “at 25 µM”, the inhibition is 41%. `CCCCCC1CCC(C(=O)O)CC1` (stereo unspecified) yielded an inhibition (at 50 µM) of 51.8%. On the same count and under the same terms, next, `CN1CCN(Cc2cc(COCc3ccccc3)c3cccnc3c2O)CC1`: 51.7%; `Oc1ccccc1NCC(O)Cn1ccc2ccccc21` (stereo unspecified): 30.2%. As to `O=c1cccc2n1Cc1cc3ccccc3nc1-2`, under “at 50 µM”, the inhibition stood at 32.4%. The same measure, in the same setting: the same measure for `CCOc1ccc(NCc2nc3ccccc3n2CCOc2ccccc2)cc1`: 30.3%. The same measure, in the same setting: the same measure for `O=c1c2cccc3c2c(nn1CN1CCOCC1)-c1ccccc1-3`: 47.5%; for `O=C(O)Cc1cc(I)c(Oc2ccc(O)c(I)c2)c(I)c1`: 38.6%. The compound `Cc1cc(C)c2c(N=NN3CCCCC3)[nH]nc2n1` yielded an inhibition (at 25 µM) of 39.3%. `Cc1ccc2nc(-c3ccc(NS(=O)(=O)c4ccc(F)cc4)cc3)sc2c1` gave an inhibition (at 50 µM) of 42.9%. For the setting “at 12.5 µM”, `Cc1onc(-c2ccccc2)c1C(=O)NC(=S)NNC(=O)c1ccc(O)cc1O` came in with an inhibition of 44.7%. In turn, `CCOc1ccc(/C=C/[N+](=O)[O-])c2ccccc12` gave an inhibition (at 50 µM) of 33.5%.

In the case of `CCOC(=O)c1cnc(-n2nc(C)cc2C)nc1NNc1cc(C)nc(-c2ccccc2)n1`, the inhibition (at 50 µM) is 48.1%. On the same count and under the same terms, next, `O=C(OCn1ncc(Cl)c(Cl)c1=O)c1ccccc1Cl`: 54.5%; `O=C1CN(CC(=O)N2CCCCC2)c2ccccc2O1`: 37.7%. The compound `CS(=O)(=O)N1CCN(C(=O)c2ccccc2F)CC1` gave an inhibition (at 3.125 µM) of 34.8%. As for `Cc1ccc(N2CCOCC2)c2c1C(=O)c1ccccc1C2=O`, the inhibition (at 50 µM) worked out at 32.3%.
